Marks after values point to notes of the source that are not given here.
Columns and labels:
[1] = Antioxidative activity of DPPH (DPPH free radical scavenging); format: biochemical; conditions: absorbance at 519 nm after 30 minutes in dark at room temperature; mean of 3 repeats
Protocol: Antioxidative activity of DPPH: DPPH belonged to a synthetic stable free radical, which has characteristic absorption in a visible light region. A method for measuring DPPH was simple and fast and had good reproducibility. Flavonoid and a sample of flavonoid and polysaccharide mixed that was prepared in Embodiment 1 were all prepared with 70% ethyl alcohol. The polysaccharide sample, positive control vitamin C (Vc) and vitamin E (Ve) were prepared with distilled water. 1.280 mg/mL stock solution was prepared with each substance to be tested and diluted for 7 concentration gradients for later use. 75 μL of a solution in each concentration to be tested was precisely added to a 96-ferment plate, and then added with 150 μL of 0.1 m MDPPH 70% ethyl alcohol solution. A blank control was set for each reaction hole of each concentration. The blank control was 75 μL of the solution to be tested and 150 μL of 70% ethyl alcohol. The total volume of reaction was 225 μL. The solution was shook well, and kept standing in dark at room temperature for 30 minutes. […] A decrease in absorbency indicated an increase in free radical scavenging activity. Each sample was repeated 3 times for each concentration. Scavenging rate=[A0-(A1-A2)]/A0 A0 was a light absorption value of the DPPH solution plus a solution to be tested at a concentration of zero. […]

[2] = Antioxidative activity of superoxide anions (PMS-NADH-NBT system method); format: biochemical; conditions: absorbance at 560 nm after 5 min, pH7.4 phosphate buffer
From the text: The determination of antioxidative activity of superoxide anions: O2-• was a free radicals with a longer life in a body. In free radical chain reaction. O2-• acted as an initiator to promote the generation of other free radicals, causing further harm to the body, which was closely related to many diseases. Therefore, the ability of the sample to remove O2-• was usually used as an important indicator of the activity of an antioxidative substance. Flavonoid and a sample of flavonoid and polysaccharide mixed that was prepared in Embodiment 1 were all prepared with 70% ethyl alcohol. A polysaccharide sample, positive control vitamin C (Vc) and vitamin E (Ve) were prepared with distilled water. 1.280 mg/mL stock solution was prepared with each substance to be tested and then diluted for 7 concentration gradients for later use. A PMS-NADH-NBT system method was used to determine the activity of scavenging superoxide anions (O2-•). […] When being added to the PMS-NADH-NBT system, an antioxidative substance inhibited the reaction of O2-• with NBT. By measuring absorbency, the ability to scavenge free radicals of antioxidant could be calculated. […] A light absorption value of the solution was measured at 560 nm after 5 min. […]

| IC50 of DPPH [1] | IC50 of O2-· [2] | Compound |
| --- | --- | --- |
| 2.95 ± 0.39^a μg/mL | 208.83 ± 10.41^d μg/mL | O=C1O[C@H]([C@@H](O)CO)C(O)=C1O [Vc, vitamin C] |
| 5.33 ± 0.45^a μg/mL | 353.33 ± 4.16^e μg/mL | Cc1c(C)c2c(c(C)c1O)CC[C@@](C)(CCC[C@H](C)CCC[C@H](C)CCCC(C)C)O2 [Ve, vitamin E] |

— patent US20220312815A1, “NATURAL FOOD ANTIOXIDANT AND METHOD FOR PREPARING THE SAME” (Lanzhou Universty, priority 2019, published 2022)
